Assay results from patent US20090246276A1, “Pharmaceutical Compositions” (priority 2008, published 2009).
Structures can show the parent of a compound that is named as a salt.

Tests used:
[1] = Example 22: effect of bupropion (Wellbutrin XL 300 mg) on steady-state pharmacokinetics of citalopram (Celexa 20 mg)
[2] = In-vitro dissolution, 900 ml medium (0.1N HCl, pH 4.5 acetate buffer, pH 6.8 or pH 7.5 phosphate buffer), USP Apparatus 1, 75 rpm, 37° C.; type: physicochemical; settings: for % Release: 900 ml Phosphate Buffer, pH 7.5, Apparatus 1, 75 rpm, 37 C.
Protocol: The dissolution profile of the above pharmaceutical composition was determined under the dissolution conditions described below in Tables 1A, 1B, and 1C.

[3] = steady-state dosing of Celexa 20 mg alone
[4] = steady-state dosing of Celexa 20 mg plus Wellbutrin XL 300 mg

## N#Cc1ccc2c(c1)COC2(CCCN)c1ccc(F)cc1 (centres unmarked) [Didesmethylcitalopram, didesmethylcitalopram]
[1]; [3]
  AUC0-τ, Mean: 92.04 ng·h/mL
  Cavg, Mean: 3.84 ng/mL
  Cmax, Mean: 4.40 ng/mL
  Cmin, Mean: 3.42 ng/mL
  Fluctuation, Mean: 26.43%
  M/P Ratio, Mean: 0.09587
  MRT, Mean: 258.96 h
  Swing, Mean: 29.97%
  Tmax, Mean: 6.41 h

## COc1cccc(C2(O)CCCCC2CN(C)C)c1 (centres unmarked) [Tramadol HCl, tramadol HCl]
[2]; Example 20 tablet, 0.1N HCl, 0.5 hr
  % Released: 10%
[2]; Example 20 tablet, 0.1N HCl, 1 hr
  % Released: 33%
[2]; Example 20 tablet, 0.1N HCl, 2 hr
  % Released: 73%
[2]; Example 20 tablet, 0.1N HCl, 3 hr
  % Released: 96%
[2]; Example 20 tablet, 0.1N HCl, 4 hr
  % Released: 104%
[2]; Example 20 tablet, 0.1N HCl, 5 hr
  % Released: 106%
[2]; Example 20 tablet, 0.1N HCl, 6 hr
  % Released: 106%
[2]; Example 20 tablet, 0.1N HCl, 8 hr
  % Released: 106%
[2]; Example 20 tablet, 0.1N HCl, 10 hr
  % Released: 105%
[2]; Example 20 tablet, 0.1N HCl, 12 hr
  % Released: 105%
[2]; Example 20 tablet, pH 6.8 phosphate buffer, 0.5 hr
  % Released: 9%
[2]; Example 20 tablet, pH 6.8 phosphate buffer, 1 hr
  % Released: 32%
[2]; Example 20 tablet, pH 6.8 phosphate buffer, 2 hr
  % Released: 75%
[2]; Example 20 tablet, pH 6.8 phosphate buffer, 3 hr
  % Released: 98%
[2]; Example 20 tablet, pH 6.8 phosphate buffer, 4 hr
  % Released: 105%
[2]; Example 20 tablet, pH 6.8 phosphate buffer, 5 hr
  % Released: 107%
[2]; Example 20 tablet, pH 6.8 phosphate buffer, 6 hr
  % Released: 107%
[2]; Example 20 tablet, pH 6.8 phosphate buffer, 8 hr
  % Released: 107%
[2]; Example 20 tablet, pH 6.8 phosphate buffer, 10 hr
  % Released: 107%
[2]; Example 20 tablet, pH 6.8 phosphate buffer, 12 hr
  % Released: 107%
[2]; Example 27 controlled release tablet (batch 1258-171), 2 hrs
  % Release: 51%
[2]; Example 27 controlled release tablet (batch 1258-171), 4 hrs
  % Release: 70%
[2]; Example 27 controlled release tablet (batch 1258-171), 8 hrs
  % Release: 96%
[2]; Example 27 controlled release tablet (batch 1258-171), 10 hrs
  % Release: 100%
[2]; Example 27 controlled release tablet (batch 1258-171), 16 hrs
  % Release: 100%
[2]; Example 28 controlled release tablet (batch 1258-175), 2 hrs
  % Release: 0%
[2]; Example 28 controlled release tablet (batch 1258-175), 4 hrs
  % Release: 7%
[2]; Example 28 controlled release tablet (batch 1258-175), 8 hrs
  % Release: 61%
[2]; Example 28 controlled release tablet (batch 1258-175), 10 hrs
  % Release: 74%
[2]; Example 28 controlled release tablet (batch 1258-175), 16 hrs
  % Release: 84%
[2]; Example 29 controlled release tablet (batch no. 08070T), 900 ml 0.1N HCl, USP Apparatus 1, 75 rpm, 37° C., 0.5 hr
  % Released: 18%
[2]; Example 29 controlled release tablet (batch no. 08070T), 900 ml 0.1N HCl, USP Apparatus 1, 75 rpm, 37° C., 1 hr
  % Released: 28%
[2]; Example 29 controlled release tablet (batch no. 08070T), 900 ml 0.1N HCl, USP Apparatus 1, 75 rpm, 37° C., 2 hr
  % Released: 42%
[2]; Example 29 controlled release tablet (batch no. 08070T), 900 ml 0.1N HCl, USP Apparatus 1, 75 rpm, 37° C., 3 hr
  % Released: 53%
[2]; Example 29 controlled release tablet (batch no. 08070T), 900 ml 0.1N HCl, USP Apparatus 1, 75 rpm, 37° C., 4 hr
  % Released: 62%
[2]; Example 29 controlled release tablet (batch no. 08070T), 900 ml 0.1N HCl, USP Apparatus 1, 75 rpm, 37° C., 5 hr
  % Released: 70%
[2]; Example 29 controlled release tablet (batch no. 08070T), 900 ml 0.1N HCl, USP Apparatus 1, 75 rpm, 37° C., 6 hr
  % Released: 76%
[2]; Example 29 controlled release tablet (batch no. 08070T), 900 ml 0.1N HCl, USP Apparatus 1, 75 rpm, 37° C., 8 hr
  % Released: 86%
[2]; Example 29 controlled release tablet (batch no. 08070T), 900 ml 0.1N HCl, USP Apparatus 1, 75 rpm, 37° C., 10 hr
  % Released: 93%
[2]; Example 29 controlled release tablet (batch no. 08070T), 900 ml 0.1N HCl, USP Apparatus 1, 75 rpm, 37° C., 12 hr
  % Released: 97%
[2]; Example 29 controlled release tablet (batch no. 08070T), 900 ml pH 6.8 phosphate buffer, USP Apparatus 1, 75 rpm, 37° C., 0.5 hr
  % Released: 19%
[2]; Example 29 controlled release tablet (batch no. 08070T), 900 ml pH 6.8 phosphate buffer, USP Apparatus 1, 75 rpm, 37° C., 1 hr
  % Released: 29%
[2]; Example 29 controlled release tablet (batch no. 08070T), 900 ml pH 6.8 phosphate buffer, USP Apparatus 1, 75 rpm, 37° C., 2 hr
  % Released: 44%
[2]; Example 29 controlled release tablet (batch no. 08070T), 900 ml pH 6.8 phosphate buffer, USP Apparatus 1, 75 rpm, 37° C., 3 hr
  % Released: 55%
[2]; Example 29 controlled release tablet (batch no. 08070T), 900 ml pH 6.8 phosphate buffer, USP Apparatus 1, 75 rpm, 37° C., 4 hr
  % Released: 65%
[2]; Example 29 controlled release tablet (batch no. 08070T), 900 ml pH 6.8 phosphate buffer, USP Apparatus 1, 75 rpm, 37° C., 5 hr
  % Released: 72%
[2]; Example 29 controlled release tablet (batch no. 08070T), 900 ml pH 6.8 phosphate buffer, USP Apparatus 1, 75 rpm, 37° C., 6 hr
  % Released: 79%
[2]; Example 29 controlled release tablet (batch no. 08070T), 900 ml pH 6.8 phosphate buffer, USP Apparatus 1, 75 rpm, 37° C., 8 hr
  % Released: 90%
[2]; Example 29 controlled release tablet (batch no. 08070T), 900 ml pH 6.8 phosphate buffer, USP Apparatus 1, 75 rpm, 37° C., 10 hr
  % Released: 98%
[2]; Example 29 controlled release tablet (batch no. 08070T), 900 ml pH 6.8 phosphate buffer, USP Apparatus 1, 75 rpm, 37° C., 12 hr
  % Released: 102%

## CNCCC[C@]1(c2ccc(F)cc2)OCc2cc(C#N)ccc21 [Desmethylcitalopram, desmethylcitalopram]
[1]; [3]
  AUC0-τ, Mean: 445.9 ng·h/mL
  Cavg, Mean: 18.6 ng/mL
  Cmax, Mean: 21.7 ng/mL
  Cmin, Mean: 16.3 ng/mL
  Fluctuation, Mean: 28.93%
  M/P Ratio, Mean: 0.4062
  MRT, Mean: 98.54 h
  Swing, Mean: 33.09%
  Tmax, Mean: 5.46 h
[1]; [4]
  AUC0-τ, Mean: 485.2 ng·h/mL
  Cavg, Mean: 20.2 ng/mL
  Cmax, Mean: 23.6 ng/mL
  Cmin, Mean: 17.3 ng/mL
  Fluctuation, Mean: 30.39%
  M/P Ratio, Mean: 0.2814
  MRT, Mean: 85.78 h
  Swing, Mean: 35.98%
  Tmax, Mean: 7.12 h

## CN(C)CCCC1(c2ccc(F)cc2)OCc2cc(C#N)ccc21 (centres unmarked) [Citalopram, citalopram]
[1]; both, human, in vivo, 20 mg
  AUC: 1220 ng·h/mL
  Cmax: 67.9 ng/mL
  MRT: 48.6 h
  Tmax: 3.96 h
  Vd/F: 750 L
[1]; [3]
  CL/F, Mean: 17.66 L/h
  Cavg, Mean: 50.8 ng/mL
  Cmin, Mean: 39.5 ng/mL
  Fluctuation, Mean: 57.22%
  Swing, Mean: 75.55%
[1]; [4]
  CL/F, Mean: 11.04 L/h
  Cavg, Mean: 78.2 ng/mL
  Cmin, Mean: 61.6 ng/mL
  Fluctuation, Mean: 48.46%
  Swing, Mean: 62.15%
